Results on one compound are retold here after patent US7772197B2, “1,3,5-triazines for treatment of viral diseases” (1,3,5-Triazines for Treatment of Viral Diseases, priority 2002, dated 2010).

In one assay the test system is HIV-1 LAI-M184V. The experiment in a line: Sensitivity of NRTI-resistant HIV strain M184V, MT-2 cells. The class given is cell-based. Particulars: Human immunodeficiency virus 1, MT2. Here is the method: (§1) 0.1 ml of a 3×10^5 cells/ml MT-2 cell suspension were seeded in 96-well plates at 3×10^4 cells/well. The compounds to be assayed were diluted in a separate 96-well at ten times (10×) the concentration needed for the screen. 22 μl of the 10× compounds was then added to the wells in triplicate except for six control wells, containing uninfected MT-2 cells alone (3 wells) and untreated HIV-infected MT-2 cells (3 wells). This was followed by the addition of HIV-1 at an MOI of 0.01, except for the three wells serving as the uninfected control. 0.1 ml of cRPMI was added to the uninfected well instead of virus. After the addition of virus, the 96-well plate was centrifuged at 1,200×g for two hours to enhance the adsorption of the virus by the MT-2 cells (see, e.g., O'Doherty, J. Virol. 74:10074-10080 (2000)). After the centrifugation step, the 96-well plate was then incubated in a 37° C. incubator containing 5% CO2 for three days. At the end of this time period the virus and cells were mixed by gentle pipetting followed by a 1 minute spin at 600×g to pellet the cells. The supernatant of each well was then serially diluted 1,000-fold into new 96-well plates to serve as inoculum for the next passage and assayed by ELISA for the amount of p24 produced. The next passage was performed as described above, except that the virus used to infect the cells was derived from the 1,000-fold dilution plate.
To determine if there is resistance of HIV NRTI resistant strains to mutagenic nucleoside analogues, NRTI resistant strains were grown in the presence of 5-aza-dC to determine whether the EC50 for 5-aza-dC is different from the WT strain (HIV-1 LAI). […] Growth of HIV NRTI resistant strains in the presence of the appropriate concentration of NRTI was used as a positive control.
Three HIV NRTI resistant strains (HIV-1 LAI-M184V, HIV-1 RTMDR1, with 74V, 41L, 106A and 215Y mutations, and HIV-1 RTMC, with 67N, 70R, 215F and 219Q mutations) were used to test the effectiveness of 5-aza-dC. […] Mutations include: M41L, E44D, A62V, K65R, D67N, T69DN, T69S_SS, K70R, L74V, V75I, F77L, Y115F, F116Y, V118I, Q151M, M184V, L210W, T215F and K219QE.
The effectiveness of DHAdC was tested against wild-type HIV strains and NRTI resistant HIV strains as described in Example 2. The following strains were tested: HIV-1 LAI, wild-type; HIV-I LAI-M184V-M184V mutation with resistance to lamivudine (3TC); HIV-1 RTMDR1-74V, 41L, 106A and 215Y mutations with resistance to zidovudine, didanosine, nevirapine and other non-nucleoside reverse transcriptase inhibitors; and HIV-1 RTMC-67N, 70R, 215F and 219Q with resistance to zidovudine.

In another assay the test system is HIV-1 LAI. The experiment in a line: Treatment of HIV-1-infected MT-2 cells with nucleoside analogues, p24 ELISA. The class given is cell-based. Here is the method: The strains of HIV-1 used for primary drug screening are HIV-1 LAI or the appropriate strain of NRTI resistant HIV for studies of cross-resistance. Virus was propagated on MT-2 cells at an multiplicity of infection (MOI) of 0.01 to generate virus stocks. Briefly, the MT-2 cells were suspended in RPMI 1640 media supplemented with 10% fetal bovine serum, streptomycin and penicillin (cRPMI) and grown in a 37° C. incubator containing 5% CO2. Serial dilution of the virus and infection of MT-2 cells were followed by an ELISA detecting the capsid protein of HIV-1 (p24) and used to determine the titer of the virus stocks (50% tissue culture infectious dose (TCID50)). The ELISA was performed according to the manufacturer's instructions. The MT-2 cells are also used for visualizing the cytopathic effects of HIV-1 growth (e.g. syncytia formation).
as §1, with “plate. To generate an EC50 value, half-log concentrations of mutagenic nucleoside or nucleotide analogue capable of eradicating virus in a single passage are tested as above to generate a dose-response curve.” for “plate.”

Read-outs that look alike come from different tables or passages of the source.

For the compound `NC1=NC(=O)N([C@H]2C[C@H](O)[C@@H](CO)O2)CN1` [DHAdC, 1-(2-Deoxy-β-D-ribofuranosyl)-4-amino-1,2,5,6-tetrahydro-1,3,5-triazin-2-one], the EC50 is 6 µM in the assay with HIV-1 LAI-M184V; approximately 0.01 µM in the assay on HIV-1 LAI (Human immunodeficiency virus 1, MT2, read-out: EC50 against HIV, against HIV, strain not stated, 'in the range of'); 3 µM with HIV-1 LAI (Human immunodeficiency virus 1, MT2, wild-type HIV strain LAI, MT-2 cells).
